This test deals with T1, SARS-CoV-2 nsp14/nsp10 complex (Severe acute respiratory syndrome coronavirus 2, UniProt P0DTD1).
T1 construct: gene rep; full-length mature nsp14 and nsp10 cut from replicase polyprotein 1ab; co-expressed from one pRSF-Duet-1 plasmid in E. coli BL21Gold (DE3), C-terminal 6xHis; with Non-structural protein 10
Kind of test: biochemical. It counts as binding.

We go through four molecules from article PMC10414583, “Structures of SARS-CoV-2 N7-methyltransferase with DOT1L and PRMT7 inhibitors provide a platform for new antivirals” (PLOS Pathogens, 2023).

For orientation: Kd means a measure of binding affinity in units of concentration.

Structures are written as SMILES.

Molecule `C[S+](CC[C@H](N)C(=O)O)C[C@H]1O[C@@H](n2cnc3c(N)ncnc32)[C@H](O)[C@@H]1O` (stereo partly shown) [SAM] gave a Kd of around 6 µM.

Turning to `Nc1nc2c(ncn2[C@@H]2O[C@H](COP(=O)(O)OP(=O)(O)OP(=O)(O)OC[C@H]3O[C@@H](n4cnc5c(N)ncnc54)[C@H](O)[C@@H]3O)[C@@H](O)[C@H]2O)c(=O)[nH]1` [GpppA RNA cap analog], the Kd came to 20 µM.

For `CC(C)N(CCCNC(=O)Nc1ccc(C(C)(C)C)cc1)C[C@H]1O[C@@H](n2cc(Br)c3c(N)ncnc32)[C@H](O)[C@@H]1O` [SGC0946], the Kd was around 8 µM.

The molecule `Nc1ncnc2c1ncn2[C@@H]1O[C@H](CSCCCCNCc2cccc(-c3ccc(Cl)cc3)c2)[C@@H](O)[C@H]1O` [SGC8158] registered a Kd of around 6 µM.
